Values joined by “and” are separate entries in the source; they are usually repeats but may differ in a detail not shown here. Equal values may be shown once. Read-outs that look alike come from different tables or passages of the source.

Experimental findings from PMC5993640 (European journal of medicinal chemistry, 2018) are described below.

One data set can be described thus: Aqueous solubility. It is filed as physicochemical. The settings on record: universal aqueous buffer.
In a further data set the test system is VSV-G. The format is cell-based. The note with it: U87-CD4-CXCR4 cells.
A short description of another data set: Plasma protein binding. It is filed as in vitro ADME.
Data set [1] in a line: Metabolic stability in human liver microsomes. The settings on record: 3 μM. In general terms: Microsomes from liver hold many membrane-bound enzymes, among them those of drug oxidation.
Data set [2] in a line: Cytotoxicity in U87-CD4-CXCR4 cells. It is filed as cell-based. The note with it: human.
The nature of data set [3]: Cytotoxicity in TZM-bl cells. The format is cell-based. The note with it: human.
Data set [4] deals with HIV-1 mediated cell-cell fusion. Nature of the data set: HIV-1 mediated cell-cell fusion inhibition assay. The format is cell-based. The note with it: HL2/3 effector and TZM-bl target cells.
The target of a further data set is hERG potassium channel (Homo sapiens, UniProt Q12809). Nature of the data set: hERG channel inhibition, whole-cell patch clamp in HEK293 cells. The note with it: HEK293 cells stably transfected with hERG cDNA. The format is cell-based. Background: hERG is a cardiac potassium channel; its block is linked to QT prolongation.
hERG potassium channel, sequence (Q12809 whole entry): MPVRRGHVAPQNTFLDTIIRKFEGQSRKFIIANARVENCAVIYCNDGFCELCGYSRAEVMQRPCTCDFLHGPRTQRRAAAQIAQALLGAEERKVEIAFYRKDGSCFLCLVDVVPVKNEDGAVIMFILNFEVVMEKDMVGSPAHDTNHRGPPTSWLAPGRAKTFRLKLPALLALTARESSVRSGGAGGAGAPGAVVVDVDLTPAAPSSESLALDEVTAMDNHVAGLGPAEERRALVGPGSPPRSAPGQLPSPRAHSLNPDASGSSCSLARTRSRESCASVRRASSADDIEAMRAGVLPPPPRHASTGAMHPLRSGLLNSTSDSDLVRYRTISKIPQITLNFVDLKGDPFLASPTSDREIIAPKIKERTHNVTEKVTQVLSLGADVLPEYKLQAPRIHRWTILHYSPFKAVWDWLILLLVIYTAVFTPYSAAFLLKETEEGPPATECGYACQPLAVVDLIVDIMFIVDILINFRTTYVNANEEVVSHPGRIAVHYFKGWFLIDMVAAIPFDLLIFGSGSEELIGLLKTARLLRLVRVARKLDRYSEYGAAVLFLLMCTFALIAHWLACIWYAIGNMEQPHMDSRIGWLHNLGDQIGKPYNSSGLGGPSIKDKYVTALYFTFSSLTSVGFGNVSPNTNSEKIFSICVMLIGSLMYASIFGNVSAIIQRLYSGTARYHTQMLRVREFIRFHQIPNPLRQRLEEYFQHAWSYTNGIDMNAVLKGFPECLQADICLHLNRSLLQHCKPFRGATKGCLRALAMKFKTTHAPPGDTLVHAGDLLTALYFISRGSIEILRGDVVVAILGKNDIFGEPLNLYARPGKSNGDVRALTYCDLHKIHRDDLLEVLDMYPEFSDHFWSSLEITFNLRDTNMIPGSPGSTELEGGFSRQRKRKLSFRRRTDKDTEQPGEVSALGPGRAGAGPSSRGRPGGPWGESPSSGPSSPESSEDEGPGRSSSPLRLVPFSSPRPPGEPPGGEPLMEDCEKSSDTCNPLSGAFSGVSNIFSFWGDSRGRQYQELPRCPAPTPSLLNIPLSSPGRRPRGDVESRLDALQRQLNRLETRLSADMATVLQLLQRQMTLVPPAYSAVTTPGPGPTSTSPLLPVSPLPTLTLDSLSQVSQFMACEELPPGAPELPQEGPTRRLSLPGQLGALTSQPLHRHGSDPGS
A further data set relates to HIV-1HXB2. The format is cell-based.
The next data set relates to HIV-1IIIB. Nature of the data set: Multi-cycle infection assay in MT-2 cells.
The next data set relates to TZM-bl cells. The experiment in a line: Cytotoxicity in TZM-bl cells. It is filed as cell-based. The settings on record: read-out: Toxicity CC50 (TZM-bl).
The next data set has as its system MT-2 cells. The experiment in a line: Cytotoxicity in MT-2 cells. It is filed as cell-based. The settings on record: read-out: Toxicity CC50 (MT-2).
For data set [5], the system named is HIV-1HXB2 WT and Env gp120 mutated pseudoviruses. The experiment in a line: microbe, parasite or virus in culture. The format is cell-based. The note with it: Human immunodeficiency virus 1, U87.CD4.CXCR4.
The mark [6] stands for this setting: pH 7.4, Solubility Range when prepared at 500 μM, With 5% DMSO, pH7.4 (first line).
[7] abbreviates: pH 7.4, aqueous solubility, DMSO concentration of 2%.
The mark [8] stands for this setting: read-out: HIV-1IIIB IC50, MT-2 cells, multi-cycle, mean ± SD, n=3.

Usually solubility stands for how much of the substance goes into solution per volume. Read a high solubility as much dissolved substance. As to `NCC(NC(=O)c1ccc(-c2ccc(C(F)(F)F)c(F)c2)[nH]1)c1nc(CO)cs1` (centres unmarked) [Compound 55, N-(2-Amino-1-(4-(hydroxymethyl)thiazol-2-yl)ethyl)-5-(3-fluoro-4-(trifluoromethyl)-phenyl)-1H-pyrrole-2-carboxamide], the solubility at 90 min in “Aqueous solubility” (setting [6]) is 100 µM to 500 µM and 42.4 µg/mL to 214 µg/mL; in “Aqueous solubility” (setting [7]), 100 to 500 µM. The “Control VSV-G IC50” value with VSV-G is “poorly active”. Also, the “bound to proteins in human plasma” value in “Plasma protein binding” is over 99%. Moreover, in data set [1], the “parent compound remaining at 120 min (% of 0 min)” value is 88.5 to 90.4%.
For orientation: CC50 means the concentration giving 50% cytotoxicity. Regarding `NC[C@@H](NC(=O)c1ccc(-c2ccc(C(F)(F)F)cc2)[nH]1)c1ncc(CO)s1` [Compound 48, N-(2-Amino-1-(5-(hydroxymethyl)thiazol-2-yl)ethyl)-5-(4-(trifluoromethyl)phenyl)-1H-pyrrole-2-carboxamide], the CC50 at 3 days in data set [2] was 46.4 ± 4.7 µM. In addition, in data set [3], the half-maximal cytotoxic concentration (CC50) at 72 h is 42.4 ± 1 µM. For the same molecule, the “Control VSV-G IC50” value with VSV-G is on record as “poorly active”. Besides, the “IC50 HIV-1 mediated cell-cell fusion” value in data set [4] is “active at slightly higher concentration than NBD-556 and 55”.
By inhibition is commonly meant the drop in the measured response relative to a control, in per cent. A low value points to a response near the control. Turning to `COc1cc(N)c(Cl)cc1C(=O)NC1CCN(CCCOc2ccc(F)cc2)CC1OC` (centres unmarked) [Cisapride], the inhibition at 0.09 µM against hERG potassium channel turned out to be 85.2 ± 2.3%.
Regarding `NC[C@H](NC(=O)c1ccc(-c2ccc(C(F)(F)F)cc2)[nH]1)c1nc(CO)cs1` [Compound 49, N-(2-Amino-1-(4-(hydroxymethyl)thiazol-2-yl)ethyl)-5-(4-(trifluoromethyl)phenyl)-1H-pyrrole-2-carboxamide], the “fold enhancement in antiviral potency (IC50) after CH2OH switch C5 to C4” value with HIV-1HXB2 (HIV-1HXB2 in TZM-bl cells, 39 vs NBD-14107, 49 vs 47, 55 vs 53) is listed as ~ 3.4 fold.
As a reminder, the IC50 is the midpoint of a concentration-inhibition curve. Regarding “N-(2-Amino-1-(5-(hydroxymethyl)oxazol-2-yl)ethyl)-5-(4-chloro-3,5-difluorophenyl)-1H-pyrrole-2-carboxamide [Compound 67]”, in the data set with HIV-1IIIB (setting [8]), the IC50 came out at 0.8 ± 0.1 µM. The results for the 50% cytotoxic concentration (CC50) in the data set on TZM-bl cells and with MT-2 cells were 27.7 ± 0.5 µM and 26.5 ± 2 µM, respectively.
Consider “N-(2-Amino-1-(5-(hydroxymethyl)thiazol-2-yl)ethyl)-5-(3,5-difluoro-4-(trifluoromethyl)-phenyl)-1H-pyrrole-2-carboxamide [Compound 58]”, for which the values for the CC50 with TZM-bl cells and in the data set with MT-2 cells were 23.5 ± 0.5 µM and 15.5 ± 0.45 µM, respectively.
Regarding `CNC[C@H](NC(=O)c1ccc(-c2ccc(C(F)(F)F)cc2)[nH]1)c1nc(CO)cs1` [Compound 51, N-(1-(4-(Hydroxymethyl)thiazol-2-yl)-2-(methylamino)ethyl)-5-(4-(trifluoromethyl)phenyl)-1H-pyrrole-2-carboxamide], in the data set on HIV-1IIIB (Human immunodeficiency virus 1, MT2, read-out: HIV-1IIIB IC50), the IC50 came out at 0.1 µM.
For the molecule `COc1cnc(-n2cnc(C)n2)c2[nH]cc(C(=O)C(=O)N3CCN(C(=O)c4ccccc4)CC3)c12` [BMS-626529, reference compound], the solubility at 90 min in “Aqueous solubility” (setting [6]) is 100 µM to 500 µM and 47.3 µg/mL to 237 µg/mL. The molecule further registered an IC50 in [5] of about 0.008 µM.
Take “N-(2-Amino-1-(5-(hydroxymethyl)oxazol-2-yl)ethyl)-5-(4-chloro-3,5-difluorophenyl)-1H-pyrrole-2-carboxamide [Compound 66]”: the IC50 in the data set with HIV-1IIIB (setting [8]) came out at 0.9 ± 0.1 µM; in the data set on HIV-1HXB2 (read-out: HIV-1HXB2 IC50, TZM-bl cells, single-cycle, mean ± SD, n=3), 0.76 ± 0.1 µM. Besides, the CC50 with TZM-bl cells came to 30.9 ± 1.7 µM; with MT-2 cells, 44.7 ± 1.5 µM.
Turning to “N-(2-Amino-1-(5-(hydroxymethyl)thiazol-2-yl)ethyl)-5-(3,5-difluoro-4-(trifluoromethyl)-phenyl)-1H-pyrrole-2-carboxamide [Compound 57]”, the CC50 was 23 ± 0.6 µM in the data set on TZM-bl cells and 14.3 ± 0.6 µM in the data set with MT-2 cells.
In the case of `NCC(NC(=O)c1ccc(-c2cc(F)c(Cl)c(F)c2)[nH]1)c1nc(CO)cs1` (centres unmarked) [Compound 39, N-(2-Amino-1-(4-(hydroxymethyl)thiazol-2-yl)ethyl)-5-(4-chloro-3,5-difluorophenyl)-1H-pyrrole-2-carboxamide], the values for the solubility at 90 min in “Aqueous solubility” (setting [6]) and in “Aqueous solubility” (setting [7]) were about 206 µg/mL and 100 to 500 µM, respectively. In addition, the CC50 at 3 days in data set [2] was 39.3 ± 2.3 µM. The “Control VSV-G IC50” value in the data set with VSV-G is “poorly active”. The “IC50 HIV-1 mediated cell-cell fusion” value in data set [4] is “active at slightly higher concentration than NBD-556 and 55”. Also, the “bound to proteins in human plasma” value in the data set “Plasma protein binding” is recorded as over 99%. For the same molecule, in [1], the “parent compound remaining at 120 min (% of 0 min)” value lay within 88.5 to 90.4%.
